In patent US11814643B2, “Enhanced sleeping beauty transposons, kits and methods of transposition” (Max-Delbrück-Centrum für Molekulare Medizin in der …, priority 2016, dated 2023):

How the values were obtained:
SB transposition = assay: Transposition assay with inhibition of cathepsin or HSP90; type: cell-based; conditions: cathepsin inhibition; E64D 20 μM vs control
Protocol: In order to monitor transcriptional changes activated by the transposase, a genome-wide transcriptional study was performed (HeLa, Affymetrix). […] While HSPA2, a variant of the heat shock protein HSP70, is a member of the stress response, cathepsins are lysosomal proteases and have a vital role in mammalian cellular turnover. […] In addition, by mitigating the cellular stress response induction of the apoptotic signalling is moderated and cell viability improved.
FIG. 6 A. Effect of E64D (an inhibitor of cathepsins, cystein proteases and calpain) on SB transposition. Transposition assay, (20 μM, right side; control, left side). RNAi approach against cathepsin(s) is expected to yield a similar improvement. B. Differential expression of host genes in the presence oft the transposase (HeLa, Affymetrix). […] Cathepsins (CTs) degrade polypeptides and are distinguished by substrate specificities (CTSH, CTSF, CTS2).

HeLa cells = assay: Transposition assay of neo-marked mutated transposon constructs; type: cell-based
Description: FIG. 4 Enhanced binding affinity at the inner DR improves Sleeping Beauty transposition. On the left, schematics of various neo-marked, mutated transposon constructs are depicted. On the right, the respective transpositional activities are shown in comparison to wild type transposon (construct 1), set as 100%. A. Composite DRs were created by changing either the PAI (black box) or the RED (grey box) recognition motifs into a high-affinity binding site (CAST-5) selected by the CASTing experiment (marked by stars at the PAI and stripped at the RED recognition motifs). B. The CAST-5 sequence (SEQ ID NO: 24 or 25) was used to replace only the PAI recognition motif, while the rest of the DR was wild type.
Altering the affinity of the binding sites might challenge the ordered assembly process occurring during transposition of a SB transposon. Thus, a series of transposon versions were constructed where 12DR and/or 14DR motifs were replaced by CASTing selected, high affinity binding sites (FIG. 4A), and the various constructs were subjected to transposition assays. […] Alternatively, the negative effect of CAST-5 on transposition could, at least partially, be accounted to its preferential selection for PAI binding, while compromising its RED function. Indeed, the CAST sequences are predicted to be sub-optimal for RED interaction, including the ability to distinguish between inner vs outer positions (FIG. 2). To distinguish between the two scenarios, we generated CAST-5/wt hybrids, where CAST-5 was replacing PAI only, otherwise kept the DRs wild type (wt). Again, we tested the impact of the hybrid motifs on transposition in various combinations. […]
HeLa cells were grown in DMEM (GIBCO BRL, Germany) supplemented with 10% Fecal Calf Serum Gold (FCS Gold) (PAA, Germany) and 1% antimycotic antibiotic (Invitrogen, Germany). […] After 3 weeks of selection, colonies were stained and counted as described in Ivics et al., Cell 1997. […]

Molecule | effect on SB transposition (SB transposition) | transpositional activity in comparison to wild type transposon (set as 100%) (HeLa cells; 12DRs replaced by CAST-5 motif) | transpositional activity in comparison to wild type transposon (set as 100%) (HeLa cells; 14DRs replaced by CAST-5 motif) | transpositional activity in comparison to wild type transposon (set as 100%) (HeLa cells; all the four DRs changed to CAST-5)
CCOC(=O)[C@H]1O[C@@H]1C(=O)N[C@@H](CC(C)C)C(=O)NCCC(C)C [E64D] | improvement |  |  | 
CAST-5: high-affinity SB transposase binding site selected by CASTing; 12DR SEQ ID NO: 24, 14DR SEQ ID NO: 25 (chain 1 GTGACGACCCCAAGTGTACATACACGCGCC; chain 2 GTGACGACCCCAAGTGTACATACACGCGCC; listed as DNA, chemistry not fully specified) |  | 65% | 3% | 2.2%
